Source: patent US9301526B2, “Compounds with nematicidal activity” (BAYER INTELLECTUAL PROPERTY GMBH, priority 2011, dated 2016)

What follows are molecules tested on Meloidogyne incognita (assay: Meloidogyne incognita test (gall formation on salad seedlings in sand)). Details: application rate 20 ppm; after 14 days; 100% = no galls, 0% = galls equal to untreated control.
Type: in vivo
Protocol: Meloidogyne Incognita—Test
Solvent: 125.0 parts by weight of acetone
To produce a suitable preparation of active compound, 1 part by weight of active compound is mixed with the stated amount of solvent, and the concentrate is diluted with water to the desired concentration. Vessels are filled with sand, a solution of the active ingredient, a suspension containing eggs and larvae of Meloidogyne incognita and salad seeds. The salad seeds germinate and the seedlings grow. Galls develop in the roots.
After 14 days the nematicidal activity is determined on the basis of the percentage of gall formation. 100% means that no galls were found; 0% means that the number of galls found on the roots of the treated plants was equal to that in untreated control plants.

Structure (SMILES) | nematicidal activity on the basis of the percentage of gall formation [%]
CC(CNC(=O)c1ccccc1C(F)(F)F)c1ccc(C(F)(F)F)cn1 (centres unmarked) [Ia-46] | 100
CC(CNC(=O)c1ccccc1I)c1ncc(Cl)cc1Cl (centres unmarked) [Ia-114] | 100
CC(Cc1ncc(C(F)(F)F)cc1Cl)NC(=O)c1ccccc1F (centres unmarked) [Ia-172] | 90
CC(Cc1ncc(C(F)(F)F)cc1Cl)NC(=O)c1ccccc1[N+](=O)[O-] (centres unmarked) [Ia-196] | 90
Cc1cc(CCNC(=O)c2ccccc2C(F)(F)F)c(Cl)cn1 [Ic-5] | 90
CN(C)C(CNC(=O)c1ccccc1Cl)c1ncc(C(F)(F)F)cc1Cl (centres unmarked) [Ia-211] | 90
O=C(NCC(F)(F)c1ncc(C(F)(F)F)cc1Cl)c1ccccc1C(F)(F)F [Ia-148] | 100
O=C(NCCc1c(F)c(F)nc(F)c1F)c1ccccc1C(F)(F)F [Ic-1] | 100
CC(CNC(=O)c1ccccc1I)c1ccc(C(F)(F)F)c(Cl)n1 (centres unmarked) [Ia-50] | 100
CC(Cc1ncc(C(F)(F)F)cc1Cl)NC(=O)c1ccccc1C(F)F (centres unmarked) [Ia-154] | 100
O=C(NCCc1c(F)c(F)nc(F)c1F)c1ccccc1I [Ic-2] | 100
O=C(NCCc1cc(F)ncc1F)c1ccccc1C(F)(F)F [Ic-7] | 100
CCC(CNC(=O)c1ccccc1C(F)(F)F)c1ccc(Cl)cn1 (centres unmarked) [Ia-131] | 100
CC(NC(=O)c1ccccc1C(F)(F)F)C(CC1CC1)c1ncc(C(F)(F)F)cc1Cl (mixture of isomers) [Ia-143] | 100
O=C(NCCc1cnc(C(F)(F)F)cc1Cl)c1ccccc1C(F)F [Ib-50] | 70
CCC(Cc1ncc(C(F)(F)F)cc1Cl)NC(=O)c1ccccc1C(F)(F)F (centres unmarked) [Ia-110] | 100
CC(C)(CNC(=O)c1ccccc1C(F)(F)F)c1ncc(C(F)(F)F)cc1Cl [Ia-93, N-{2-[3-chloro-5-(trifluoromethyl)pyridin-2-yl]-2-methylpropyl}-2-(trifluoromethyl)benzamide] | 100
CC(Cc1ncc(C(F)(F)F)cc1Cl)NC(=O)c1ccccc1C(F)(F)F (centres unmarked) [Ia-43] | 100

Structure (SMILES) | nematicidal activity on the basis of the percentage of gall formation [%]
CC(Cc1ncc(C(F)(F)F)cc1Cl)NC(=O)c1c(F)cccc1C(F)(F)F (centres unmarked) [Ia-174] | 90
O=C(NCCc1cnc(C(F)(F)F)cc1Cl)c1ccccc1C(F)(F)F [Ib-47] | 90
CC(CNC(=O)c1ccccc1C(F)(F)F)c1ncc(C(F)(F)F)cc1Cl (centres unmarked) [Ia-92] | 100
Cc1c(F)cccc1C(=O)NCC(C)c1ncc(C(F)(F)F)cc1Cl (centres unmarked) [Ia-70] | 100
CC(Cc1ncc(C(F)(F)F)cc1Cl)NC(=O)c1ccccc1I (centres unmarked) [Ia-140] | 100
CC(CNC(=O)c1ccccc1I)c1ncc(C(F)(F)F)cc1Cl (centres unmarked) [Ia-177] | 100
CN(C)C(CNC(=O)c1ccccc1C(F)(F)F)c1ncc(C(F)(F)F)cc1Cl (centres unmarked) [Ia-212] | 90
O=C(NCCc1cnc(C(F)(F)F)cc1Cl)c1c(F)cccc1F [Ib-51] | 70
CC(CNC(=O)c1ccccc1I)c1ccc(C(F)(F)F)cn1 (centres unmarked) [Ia-47] | 100
CC(CNC(=O)c1ccccc1C(F)(F)F)c1ncc(Cl)cc1Cl (centres unmarked) [Ia-113] | 100
O=C(NCCc1cnc(C(F)(F)F)cc1Cl)c1ccccc1[N+](=O)[O-] [Ib-58] | 90
O=C(NCC(F)(F)c1ncc(Cl)cc1Cl)c1ccccc1I [Ia-142] | 100
CC(Cc1ncc(C(F)(F)F)cc1Cl)NC(=O)c1c(F)cccc1F (centres unmarked) [Ia-170] | 90
CC(Cc1ncc(C(F)(F)F)cc1Cl)NC(=O)c1ccccc1Cl (centres unmarked) [Ia-141] | 100
CC(Cc1ncc(Cl)cc1Cl)NC(=O)c1ccccc1C(F)(F)F (centres unmarked) [Ia-3] | 100
CC(Cc1ncc(C(F)(F)F)cc1Cl)NC(=O)c1ccccc1Br (centres unmarked) [Ia-153] | 100
CC(Cc1ncc(C(F)(F)F)cc1Cl)NC(=O)c1ccccc1C(F)(F)F (single isomer, unassigned) [Ia-122] | 100

The molecules below were run on Cooperia curticei larvae (assay: Cooperia curticei test (COOPCU), larval mortality). Details: application rate 100 ppm; after 5 days; 100% = all larvae killed.
Type: in vivo
Protocol: Cooperia Curticei-Test (COOPCU)
(§1) Solvent: dimethyl sulfoxide
(§2) To produce a suitable preparation of active compound, 10 mg of active compound are dissolved in 0.5 ml solvent, and the concentrate is diluted with “Ringer's solution” to the desired concentration.
Approximately 40 Cooperia curticei larvae are transferred into a test tube containing compound solution. After 5 days percentage of larval mortality are recorded. 100% efficacy means all larvae are killed; 0% efficacy means no larvae are killed.

Structure (SMILES) | activity (percentage of larval mortality) [%]
COc1cc(CCNC(=O)c2ccccc2OC)ccn1 [Ic-59] | 90
COc1cc(CCNC(=O)c2cccc(Cl)c2)ccn1 [Ic-75] | 90
O=C(NCCc1cnc(C(F)(F)F)cc1Cl)c1ccccc1F [Ib-48] | 90
CCc1ccc(C(=O)NCCc2ccnc(OC)c2)cc1 [Ic-58] | 80
O=C(NCCc1c(Cl)cncc1Cl)c1ccc(F)c(F)c1 [Ic-26] | 80
COc1cc(CCNC(=O)c2ccc(C(F)(F)F)cc2)ccn1 [Ic-60] | 90

These molecules were tested on Haemonchus contortus larvae (assay: Haemonchus contortus test (HAEMCO), larval mortality). Details: application rate 20 ppm; after 5 days; 100% = all larvae killed.
Type: in vivo
Protocol: Haemonchus contortus—Test (HAEMCO)
as §1, §2
Approximately 40 Haemonchus contortus larvae are transferred into a test tube containing compound solution. After 5 days percentage of larval mortality are recorded. 100% efficacy means all larvae are killed, 0% efficacy means no larvae are killed.

Structure (SMILES) | activity (percentage of larval mortality) [%]
O=C(NCCc1cnc(C(F)(F)F)cc1Cl)c1ccccc1Br [Ib-52] | 80

Same assay, conditions: application rate 100 ppm; after 5 days; 100% = all larvae killed

Structure (SMILES) | activity (percentage of larval mortality) [%]
O=C(NCC1(c2ccc(Cl)cn2)CC1)c1ccccc1C(F)(F)F [Ia-48] | 80
O=C(NCCc1c(F)c(F)nc(F)c1F)c1ccccc1C(F)(F)F [Ic-1] | 100
COC(=O)C(CNC(=O)c1ccccc1C(F)(F)F)c1ncc(C(F)(F)F)cc1Cl (centres unmarked) [Ia-5] | 80
O=C(NCCc1cnc(C(F)(F)F)cc1Cl)c1ccccc1Cl [Ib-49] | 100
O=C(NCCc1cc(F)ncc1F)c1ccccc1C(F)(F)F [Ic-7] | 100
O=C(NCCc1cnc(C(F)(F)F)cc1Cl)c1ccccc1F [Ib-48] | 90
O=C(NCCc1cnc(C(F)(F)F)cc1Cl)c1ccccc1C(F)F [Ib-50] | 100
O=C(NCCc1cnc(C(F)(F)F)cc1Cl)c1ccccc1C(F)(F)F [Ib-47] | 100
O=C(NCCc1cnc(C(F)(F)F)cc1Cl)c1c(F)cccc1F [Ib-51] | 90
CCOC(=O)C(CNC(=O)c1ccccc1C(F)(F)F)(C(=O)OC)c1ncc(C(F)(F)F)cc1Cl (centres unmarked) [Ia-6] | 80
COC(=O)C(CNC(=O)c1ccccc1C(F)(F)F)(C(=O)OC)c1ncc(C(F)(F)F)cc1Cl [Ia-1] | 90
